Values quoted from earlier work in patent US12234263B2, “Influenza vaccines” (InvVax, Inc., priority 2016, dated 2025).

Tested on: CD8 T-cell
Details: BALB/C; worldwideweb.fludb.org

## TYQRTRALV [SEQ ID NO: 37]
  experimentally validated CD8 T-cell epitope: experimentally validated BALB/C influenza A virus CD8 T-cell epitope
